Results published in patent US8729093B2 (priority 2006, dated 2014).
Where two headings read alike, the source gives them in different places.

Key:
rice "Bakanae" disease = assay: whole plant or invertebrate; assay type: in vivo; conditions: Oryza sativa, 504 h, read-out: prevention value
rice blast [1] = assay type: in vivo, Pyricularia oryzae
rice blast [2] = assay: whole plant or invertebrate; assay type: in vivo; conditions: Pyricularia oryzae, 504 h, read-out: prevention value
[3] = rice (Sachikaze), nursery box soil treated at sowing time or transplanting time, 400 g a.i./10 a, observed 7 days after inoculation, untreated plants = 3

Compound	pest or weed control at 0.02 % a.i. (rice "Bakanae" disease) [%]	disease severity (rice blast [1]; [3])	pest or weed control at 0.02 % a.i. (rice blast [2]) [%]	disease severity (rice blast [1]; in vivo)
CC1(C)Cc2c(F)cccc2C(c2cnc3ccccc3c2)=N1 [Compound No. 1-32, 3-(5-fluoro-3,3-dimethyl-3,4-dihydroisoquinolin-1-yl)quinoline]	≥ 80	0	≥ 80	
CC1(C)Cc2c(Cl)cccc2C(c2cnc3ccccc3c2)=N1 [Compound No. 1-44, 3-(5-chloro-3,3-dimethyl-3,4-dihydroisoquinolin-1-yl)quinoline]		0		
CC1(C)Cc2c(Br)cccc2C(c2cnc3ccccc3c2)=N1 [Compound No. 1-56, 3-(5-bromo-3,3-dimethyl-3,4-dihydroisoquinolin-1-yl)quinoline]		0		
CC1(C)Cc2c(ccc(F)c2F)C(c2cnc3ccccc3c2)=N1 [Compound No. 1-117, 3-(5,6-difluoro-3,3-dimethyl-3,4-dihydroisoquinolin-1-yl)quinoline]		0		
CCCC1(C)Cc2c(F)cccc2C(c2cnc3ccccc3c2)=N1 (stereo not shown) [Compound No. 1-185, 3-(5-fluoro-3-methyl-3-propyl-3,4-dihydroisoquinolin-1-yl)quinoline]		0		
CC1(C(F)(F)F)Cc2ccccc2C(c2cnc3ccccc3c2)=N1 (stereo not shown) [Compound No. 1-387, 3-(3-methyl-3-trifluoromethyl-3,4-dihydroisoquinolin-1-yl)quinoline]		0		
CC1(CC(F)(F)F)Cc2ccccc2C(c2cnc3ccccc3c2)=N1 (stereo not shown) [Compound No. 1-425, 3-[3-methyl-3-(2,2,2-trifluoroethyl)-3,4-dihydroisoquinolin-1-yl]quinoline]		0		
CC1(c2ccc(F)cc2)Cc2ccccc2C(c2cnc3ccccc3c2)=N1 (stereo not shown) [Compound No. 1-502, 3-[3-methyl-3-(4-fluorophenyl)-3,4-dihydroisoquinolin-1-yl]quinoline]		0		
CC1(C)N=C(c2cnc3ccccc3c2)c2ccccc2C1(C)C [Compound No. 1-865, 3-(3,3,4,4-tetramethyl-3,4-dihydroisoquinolin-1-yl)quinoline]	≥ 80			
CC1(C)N=C(c2cnc3ccccc3c2)c2cccc(F)c2C1(C)C [Compound No. 1-866, 3-(5-fluoro-3,3,4,4-tetramethyl-3,4-dihydroisoquinolin-1-yl)quinoline]	≥ 80	0	≥ 80	
CC1(C)N=C(c2cnc3c(F)cccc3c2)c2cccc(F)c2C1(C)C [Compound No. 1-918, 8-fluoro-3-(5-fluoro-3,3,4,4-tetramethyl-3,4-dihydroisoquinolin-1-yl)quinoline]		0		
Cc1cccc2cc(C3=NC(C)(C)C(C)(C)c4c(F)cccc43)cnc12 [Compound No. 1-919, 3-(5-fluoro-3,3,4,4-tetramethyl-3,4-dihydroisoquinolin-1-yl)-8-methylquinoline]		0		
CC1(C)N=C(c2cnc3ccccc3c2)c2ccccc2C1(F)F [Compound No. 1-929, 3-(4,4-difluoro-3,3-dimethyl-3,4-dihydroisoquinolin-1-yl)quinoline]	≥ 80	0	≥ 80	
CC1(C)N=C(c2cnc3ccccc3c2)c2cccc(F)c2C1(F)F [Compound No. 1-930, 3-(4,4,5-trifluoro-3,3-dimethyl-3,4-dihydroisoquinolin-1-yl)quinoline]	≥ 80	0	≥ 80	
CC1(C)c2ccccc2C2(c3cnc4ccccc4c3)ON2C1(C)C (stereo not shown) [Compound No. 2-91, 3,3,4,4-tetramethyl-8b-quinolin-3-yl-4,8b-dihydro-3H-oxazireno[3,2-a]isoquino line]				0
CC1(C)c2c(F)cccc2C2(c3cnc4ccccc4c3)ON2C1(C)C (stereo not shown) [Compound No. 2-100, 5-fluoro-3,3,4,4-tetramethyl-8b-quinolin-3-yl-4,8b-dihydro-3H-oxazireno[3,2-a]isoquinoline]	≥ 80		≥ 80	
CC1(C)N2OC2(c2cnc3ccccc3c2)c2ccccc2C1(F)F (stereo not shown) [Compound No. 2-134, 4,4-difluoro-3,3-dimethyl-8b-quinolin-3-yl-4,8b-dihydro-3H-oxazireno[3,2-a]isoquinoline]			≥ 80	
CC1(C)N2OC2(c2cnc3ccccc3c2)c2cccc(F)c2C1(F)F (stereo not shown) [Compound No. 2-135, 4,4,5-trifluoro-3,3-dimethyl-8b-quinolin-3-yl-4,8b-dihydro-3H-oxazireno[3,2-a]isoquinoline]			≥ 80	
CC1(C)c2c(F)cccc2C(c2cnc3ccccc3c2)=[N+]([O-])C1(C)C [Compound No. 3-100, 3-(5-fluoro-3,3,4,4-tetramethyl-2-oxido-3,4-dihydroisoquinolin-1-yl)quinoline]	≥ 80	0	≥ 80	
CC1(C)c2cc(F)ccc2C(c2cnc3ccccc3c2)=[N+]([O-])C1(C)C [Compound No. 3-109, 3-(6-fluoro-3,3,4,4-tetramethyl-2-oxido-3,4-dihydroisoquinolin-1-yl)quinoline]		0		
CC1(C)[N+]([O-])=C(c2cnc3ccccc3c2)c2ccccc2C1(F)F [Compound No. 3-134, 3-(4,4-difluoro-3,3-dimethyl-2-oxido-3,4-dihydroisoquinolin-1-yl)quinoline]	≥ 80	0	≥ 80	
CC1(C)[N+]([O-])=C(c2cnc3ccccc3c2)c2cccc(F)c2C1(F)F [Compound No. 3-135, 3-(4,4,5-trifluoro-3,3-dimethyl-2-oxido-3,4-dihydroisoquinolin-1-yl)quinoline]	≥ 80	0	≥ 80	
